Consider eight compounds from patent US20230017045A1, “PYRIDINE AND PYRIMIDINE CARBOXYLATE HERBICIDES AND METHODS OF USE THEREOF” (Dow AgroSciences LLC, priority 2017, published 2023).

Each structure is given as a SMILES string. Read-outs that look alike come from different tables or passages of the source.

The subject of the assay is test plant species. As to the kind of experiment: Post-emergent herbicidal activity test (greenhouse, foliar spray, visual growth reduction). The format is in vivo. To be noted: post-emergence, 336 h, 140 g ai/ha. In outline:
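Seedlings were raised 7-21 d in a greenhouse under a 15 h photoperiod until the first or second true leaf. Each compound, dissolved in acetone:DMSO 97:3 and diluted into a surfactant-containing spray mixture, was then applied at 187 L/ha. Plants were subirrigated, and growth reduction was scored visually at 14 d.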

[1] abbreviates: ECHCG: barnyardgrass (Echinochloa crus-galli), 14 days after application, read-out: Visual Growth Reduction (%) 14 Days After Application, ECHCG.
Setting [2] is: IPOHE: ivy-leaf morning glory (Ipomoea hederacea), 14 days after application, read-out: Visual Growth Reduction (%) 14 Days After Application, IPOHE.
The mark [3] stands for this setting: KCHSC: kochia (Bassia scoparia), 14 days after application, read-out: Visual Growth Reduction (%) 14 Days After Application, KCHSC.
Where [4] appears, read: ORYSA: rice (Oryza sativa), 14 days after application, read-out: Visual Growth Reduction (%) 14 Days After Application, ORYSA.
[5] abbreviates: SETFA: giant foxtail (Setaria faberi), 14 days after application, read-out: Visual Growth Reduction (%) 14 Days After Application, SETFA.
The mark [6] stands for this setting: SORVU: grain sorghum (Sorghum vulgare), 14 days after application, read-out: Visual Growth Reduction (%) 14 Days After Application, SORVU.
[7] abbreviates: STEME: common chickweed (Stellaria media), 14 days after application, read-out: Visual Growth Reduction (%) 14 Days After Application, STEME.
The mark [8] stands for this setting: TRZAS: wheat, spring (Triticum aestivum), 14 days after application, read-out: Visual Growth Reduction (%) 14 Days After Application, TRZAS.
Setting [9] is: blackgrass (Alopecurus myosuroides), 14 Days After Application, read-out: Visual Growth Reduction (%) ALOMY.
[10] abbreviates: canada thistle (Cirsium arvense), 14 Days After Application, read-out: Visual Growth Reduction (%) CIRAR.
Setting [11] is: crabgrass (Digitaria sanguinalis), 14 Days After Application, read-out: Visual Growth Reduction (%) DIGSA.
[12] abbreviates: lambsquarters (Chenopodium album), 14 Days After Application, read-out: Visual Growth Reduction (%) CHEAL.
Setting [13] is: redroot pigweed (Amaranthus retroflexus), 14 Days After Application, read-out: Visual Growth Reduction (%) AMARE.
The mark [14] stands for this setting: wild oat (Avena fatua), 14 Days After Application, read-out: Visual Growth Reduction (%) AVEFA.
Setting [15] is: yellow nutsedge (Cyperus esculentus), 14 Days After Application, read-out: Visual Growth Reduction (%) CYPES.

Consider `COC(=O)c1nc(-c2cc(Cl)c(C(F)(F)F)cc2C)ccc1Cl` [F371, Methyl 3-chloro-6-(5-chloro-2-methyl-4-(trifluoromethyl)phenyl)picolinate], for which the pest or weed control at 140 g/ha by setting is: under setting [1], 0 to 29%; under setting [2], 95 to 100%; under setting [3], 0 to 29%; under setting [4], 0 to 29%; under setting [5], 0 to 29%; under setting [6], 75 to 84%. In addition, the pest or weed control at 140 g/ha lay in the range of 0 to 29% under setting [7]; 0 to 29% under setting [8]; 0 to 29% under setting [9]; 0 to 29% under setting [10]; 45 to 59% under setting [11]; 30 to 44% under setting [12]. For the same compound, the pest or weed control at 140 g/ha under setting [13] fell in the range of 30 to 44%, the pest or weed control at 140 g/ha under setting [14] was 0 to 29% and the pest or weed control at 140 g/ha under setting [15] lay in the range of 0 to 29%.

`C=Cc1cc(-c2nc(C(=O)OC)c(Cl)cc2F)c(OC)c2c1OC(F)(F)O2` [F372, Methyl 3-chloro-6-(2,2-difluoro-4-methoxy-7-vinylbenzo[d][1,3]dioxol-5-yl)-5-fluoropicolinate]: the pest or weed control at 140 g/ha reads like this: under setting [1], 0 to 29%; under setting [2], 95 to 100%; under setting [3], 0 to 29%; under setting [4], 0 to 29%; under setting [5], 0 to 29%; under setting [6], 30 to 44%. The pest or weed control at 140 g/ha under setting [7] lay in the range of 0 to 29%; the pest or weed control at 140 g/ha under setting [8] was 0 to 29%; the pest or weed control at 140 g/ha under setting [9] lay in the range of 0 to 29%; the pest or weed control at 140 g/ha under setting [10] fell in the range of 0 to 29%; the pest or weed control at 140 g/ha under setting [11] is 0 to 29%; the pest or weed control at 140 g/ha under setting [12] lay within 0 to 29%. Moreover, the pest or weed control at 140 g/ha was 45 to 59% under setting [13], 0 to 29% under setting [14] and 0 to 29% under setting [15].

Regarding `COC(=O)c1nc(-c2ccc(C(F)(F)F)cc2Cl)c(F)cc1F` [F373, Methyl 6-(2-chloro-4-(trifluoromethyl)phenyl)-3,5-difluoropicolinate], the pest or weed control at 140 g/ha by setting is: under setting [1], 75 to 84%; under setting [2], 95 to 100%; under setting [3], 75 to 84%; under setting [4], 0 to 29%; under setting [5], 75 to 84%; under setting [6], 95 to 100%. In addition, the pest or weed control at 140 g/ha is, setting by setting: under setting [7], 30 to 44%; under setting [8], 30 to 44%; under setting [9], 0 to 29%; under setting [10], 95 to 100%; under setting [11], 95 to 100%; under setting [12], 95 to 100%. Further, the pest or weed control at 140 g/ha reads like this: under setting [13], 95 to 100%; under setting [14], 45 to 59%; under setting [15], 0 to 29%.

With `COC(=O)c1nc(-c2ccc(C(F)(F)F)cc2Br)c(F)cc1F` [F374, Methyl 6-(2-bromo-4-(trifluoromethyl)phenyl)-3,5-difluoropicolinate], the pest or weed control at 140 g/ha runs as follows: under setting [1], 75 to 84%; under setting [2], 95 to 100%; under setting [3], 75 to 84%; under setting [4], 45 to 59%; under setting [5], 85 to 94%; under setting [6], 95 to 100%. Besides, the pest or weed control at 140 g/ha was in the range of 0 to 29% under setting [7]; 60 to 74% under setting [8]; 45 to 59% under setting [9]; 95 to 100% under setting [10]; 85 to 94% under setting [11]; 95 to 100% under setting [12]. Further, the pest or weed control at 140 g/ha reads like this: under setting [13], 95 to 100%; under setting [14], 45 to 59%; under setting [15], 0 to 29%.

As for `COC(=O)c1nc(-c2ccc(C(F)(F)F)cc2F)c(F)cc1F` [F375, Methyl 3,5-difluoro-6-(2-fluoro-4-(trifluoromethyl)phenyl)picolinate], the pest or weed control at 140 g/ha is, setting by setting: under setting [1], 85 to 94%; under setting [2], 95 to 100%; under setting [3], 60 to 74%; under setting [4], 0 to 29%; under setting [5], 85 to 94%; under setting [6], 85 to 94%. Further, the pest or weed control at 140 g/ha reads like this: under setting [7], 0 to 29%; under setting [8], 75 to 84%; under setting [9], 45 to 59%; under setting [10], 85 to 94%; under setting [11], 85 to 94%; under setting [12], 85 to 94%. Further, the pest or weed control at 140 g/ha is, setting by setting: under setting [13], 95 to 100%; under setting [14], 60 to 74%; under setting [15], 0 to 29%.

Consider `COC(=O)c1nc(-c2ccc(C(F)(F)F)cc2C)c(F)cc1F` [F376, Methyl 3,5-difluoro-6-(2-methyl-4-(trifluoromethyl)phenyl)picolinate], for which the pest or weed control at 140 g/ha is, setting by setting: under setting [1], 0 to 29%; under setting [2], 95 to 100%; under setting [3], 45 to 59%; under setting [4], 0 to 29%; under setting [5], 60 to 74%; under setting [6], 85 to 94%. Also, the pest or weed control at 140 g/ha reads like this: under setting [7], 0 to 29%; under setting [8], 0 to 29%; under setting [9], 0 to 29%; under setting [10], 60 to 74%; under setting [11], 60 to 74%; under setting [12], 85 to 94%. Moreover, the pest or weed control at 140 g/ha by setting is: under setting [13], 95 to 100%; under setting [14], 0 to 29%; under setting [15], 0 to 29%.

Consider `COC(=O)c1nc(-c2ccc(C(F)(F)F)cc2OC)c(F)cc1F` [F377, Methyl 3,5-difluoro-6-(2-methoxy-4-(trifluoromethyl)phenyl)picolinate], for which the pest or weed control at 140 g/ha lay in the range of 60 to 74% under setting [1]; 95 to 100% under setting [2]; 60 to 74% under setting [3]; 0 to 29% under setting [4]; 75 to 84% under setting [5]; 85 to 94% under setting [6]. Besides, the pest or weed control at 140 g/ha runs as follows: under setting [7], 0 to 29%; under setting [8], 0 to 29%; under setting [9], 0 to 29%; under setting [10], 75 to 84%; under setting [11], 60 to 74%; under setting [12], 85 to 94%. Also, the pest or weed control at 140 g/ha under setting [13] lay in the range of 95 to 100%, the pest or weed control at 140 g/ha under setting [14] lay within 30 to 44% and the pest or weed control at 140 g/ha under setting [15] is 60 to 74%.

For `COC(=O)c1nc(-c2ccc(C#N)cc2F)c(F)cc1Cl` [F378, Methyl 3-chloro-6-(4-cyano-2-fluorophenyl)-5-fluoropicolinate], the pest or weed control at 140 g/ha is, setting by setting: under setting [1], 0 to 29%; under setting [2], 95 to 100%; under setting [3], 45 to 59%; under setting [4], 0 to 29%; under setting [5], 60 to 74%; under setting [6], 75 to 84%. The pest or weed control at 140 g/ha is 0 to 29% under setting [7]; 0 to 29% under setting [8]; 0 to 29% under setting [9]; 45 to 59% under setting [10]; 60 to 74% under setting [11]; 75 to 84% under setting [12]. Besides, the pest or weed control at 140 g/ha under setting [13] lay in the range of 45 to 59%, the pest or weed control at 140 g/ha under setting [14] was 0 to 29% and the pest or weed control at 140 g/ha under setting [15] is 0 to 29%.
